Test results as given in publication PMC8305768, “Design, Synthesis and Antiparasitic Evaluation of Click Phospholipids” (Molecules, 2021).
Structures can show the parent of a compound that is named as a salt.

How the values were obtained:
[1] = Cytotoxicity against THP-1 macrophages (MTT); format: cell-based; conditions: human, PMA-differentiated THP-1 macrophages, read-out: Toxicity CC50 ± SD Or CC50 Interval Estimation
Experimental: The effect of compounds selected compounds on THP-1-derived macrophages was assessed by the colorimetric MTT assay (3-(4,5-dimethylthiazol-2-yl)-2,5-diphenyl tetrazolium bromide). Briefly, 1 × 10^5 THP-1 cells/mL were differentiated into macrophages by addition of 20 ng/mL of phorbol-myristate 13-acetate (PMA, Sigma, Saint Louis, MI, USA) for 18 h, followed by replacement with fresh medium for 24 h. Cells were incubated with 100 µL of compounds ranging from 100 to 1 µM after dilution in the RPMI complete medium containing a maximum amount of 1% DMSO. After incubation for 72 h, the medium was removed and 100 µL of 0.5 mg/mL MTT solution diluted in RPMI was added. Plates were incubated for an additional 4 h to allow viable cells to convert MTT into a purple formazan product. Solubilization of formazan crystals was achieved by the addition of 2-propanol and absorbance was read at 570 nm using a Synergy 2 Multi-Mode Reader (Biotek, Winooski, VT, USA). Cytotoxicity was evaluated by the determination of the CC50 value (drug concentration that reduced the percentage of viable cells in 50%) and calculated by non-linear regression analysis using GraphPad Prism version 8.1.1 for Windows (GraphPad Software, San Diego, CA, USA).

[2] = system: L. donovani strain BPK190 amastigotes; assay: Activity against L. donovani intramacrophage amastigotes (bone marrow-derived macrophages, qPCR); format: cell-based, Leishmania donovani; conditions: Leishmania donovani, Macrophage, infected bone marrow-derived macrophages, 48 h, read-out: Parassite Load Reduction (%)
Experimental: L. donovani strain BPK 190 [55] was cultivated at 25 °C in modified Medium199 (Sigma-Aldrich, with 20% heat-inactivated FCS, 40 mM HEPES pH 7.4, 0.2% NaHCO3, 100 μM adenin, 1.2 μg/mL 6-biopterin and 10 μg/mL haem, with 1 × Pen/Strep/l-glutamine (Sigma, Saint Louis, MI, USA), pH 7.0).
Activity against L. donovani strain BPK190 was tested in vitro using bone marrow-derived macrophages as host cells. Infection was established for 24 h prior to the addition of compounds from 10 mM stocks in DMSO. Parasite load was determined 48 h later by quantifying Leishmania actin DNA relative to mouse actin DNA using real time qPCR as described.

[3] = system: T. cruzi Y strain intracellular amastigotes; assay: Activity against T. cruzi Y strain intracellular amastigotes (HG39 cell-line, parasite load); format: cell-based; conditions: Trypanosoma cruzi, read-out: Parassite Load Reduction (%)
Experimental: T. cruzi epimastigotes (Y strain) were obtained by axenic cultivation in the LIT medium, supplemented with 10% FBS (Cultilab, São Paulo, Brazil). Cultures were maintained at […] for 4–5 days until they reached the log growth phase. New cultures were made every 4 days from the initial inoculum of 2 × 10^6 parasites/mL. T. cruzi trypomastigotes (Y strain) were maintained in culture by the infection of LLC-MK2 (ATTC-CCL7) epithelial cells. This cell line was cultured in […] tissue culture bottles (TPP) in RPMI 1640 medium (Gibco), (Thermo Fischer Scientific, Carlsbad, CA, USA) supplemented with 10% FBS (Gibco) (Thermo Fischer Scientific, Carlsbad, CA, USA). Cultures were maintained at 37 °C under 5% CO2 atmosphere, and RPMI 1640 medium and SFB were exchanged every 48 h. After confluence, the cultures were treated with 1 mL of a mixture of trypsin and versene (Sigma, São Paulo, Brazil) (0.2 and 0.002%, respectively). After 24 h, a subconfluence culture was infected with the trypomastigotes in the approximate proportion of 10:1 parasites/cell. From five to seven days post infection, the trypomastigote stage was obtained from the culture supernatant. Alternatively (Figure 2), T. cruzi strain Y was maintained as previously described.

CYP1A2 = target: T1, CYP1A2 (Homo sapiens, UniProt P05177); assay: Cytochrome P450 inhibition assay (P450-Glo) CYP1A2; format: in vitro ADME; conditions: compounds 10 μM; miltefosine 10 μM or 1 μM
T1 construct: purchased Corning Inc; host or cells: baculovirus-infected insect cells
T1 sequence (P05177 2-516 limits assumed): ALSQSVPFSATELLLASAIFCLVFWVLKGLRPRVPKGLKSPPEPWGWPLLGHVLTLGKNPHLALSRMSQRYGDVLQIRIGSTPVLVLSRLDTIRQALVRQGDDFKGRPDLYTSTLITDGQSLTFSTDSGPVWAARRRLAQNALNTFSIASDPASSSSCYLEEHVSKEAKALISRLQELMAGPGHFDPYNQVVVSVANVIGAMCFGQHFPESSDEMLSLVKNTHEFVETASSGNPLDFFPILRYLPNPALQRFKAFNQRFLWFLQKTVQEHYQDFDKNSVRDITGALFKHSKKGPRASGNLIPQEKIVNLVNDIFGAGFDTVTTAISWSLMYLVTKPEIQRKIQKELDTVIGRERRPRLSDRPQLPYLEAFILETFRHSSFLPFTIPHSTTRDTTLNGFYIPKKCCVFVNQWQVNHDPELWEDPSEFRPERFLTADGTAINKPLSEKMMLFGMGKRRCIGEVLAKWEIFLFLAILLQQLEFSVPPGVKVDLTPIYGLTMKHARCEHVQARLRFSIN
Description: Cytochrome (CYP) P450 inhibition assay: These assays made use of microsomal preparations of CYP450 (1A2, 2C9, 2C19, 2D6 and 3A4) from baculovirus-infected insect cells (Corning Inc., Corning, NY, USA) and cytochrome c reductase (and cytochrome b5 for CYP450 3A4). For detection of CYP450 activity, the luminescence-based P450-Glo (Promega Corp., Madison, WI, USA) assay system was used that contained a luminogenic CYP450 substrate, lyophilized luciferin detection reagent and reconstitution buffer. The substrates were luciferin derivatives of CYP450-specific substrates that produce (4S)-4,5-dihydro-2-(6-hydroxybenzothiazolyl)-4-thiazolecarboxylic acid (D-luciferin) after cleavage by CYP450 (CYP450 3A4, luciferin-IPA; CYP450 2C19, luciferin-H EGE; CYP450 2C9, luciferin-H; CYP450 2D6, luciferin-ME EGE; CYP450 1A2, luciferin-1A2). CYP450 reactions were initiated by addition of the NADPH regeneration system to the enzyme–substrate mixture with the luciferin detection reagent stopping the reaction and the D-luciferin being converted to oxyluciferin under the production of light being proportional to the CYP450 activity. The CYP450 assays were performed using the Tecan Fluent liquid-handling automation platform (Tecan Group Ltd., Mannedorf, Switzerland) in the 384-well assay format. Compounds were added into an empty 384-well plate (100 nL/well in 1% v/v DMSO) using the Echo 550 Liquid Handler followed by the addition of 5 μL/well of the CYP450/substrate mixture and incubation for 30 min at 37 °C, after which the reaction was initiated by the addition of the 5 μL/well NADPH regeneration system. After a further 30-min incubation at 37 °C, the CYP450 reaction was stopped and the luciferase reaction was simultaneously initiated by addition of 10 μL/well of luciferin detection reagent, followed by an additional 30-min incubation at 37 °C. The luminescence signal was detected using an Infinite M1000 PRO plate reader (Tecan Group Ltd., Mannedorf, Switzerland). The NCs yielded 0% inhibition (1% v/v DMSO) and standard CYP450 specific inhibitors were used as positive controls, yielding 100% inhibition (CYP450 1A2, alpha-naphthoflavone; CYP450 2C9, sulfaphenazole; CYP450 2C19, troglitazone; CYP450 2D6, quinidine; CYP450 3A4, ketoconazole).
Data analysis: The screening data were obtained in triplicate and analysed using ActivityBase (IDBS, Guildford, UK), and outlier elimination in the control wells was performed using the 3-sigma method. Unless stated, dose–response experiments were performed in the 11-point format with the IC50 value, Hill slope, minimum signal and maximum signal for each dose–response curve obtained using a four-parameter logistic fit in the XE module of ActivityBase (IDBS).

[4] = system: T. b. brucei L427 WT bloodstream form; assay: Activity against T. brucei bloodstream forms (resazurin-based assay); format: cell-based; conditions: Trypanosoma brucei, 72 h
Experimental: Trypanosoma brucei brucei Lister 427 bloodstream forms were grown at 37 °C, 5% CO2 in complete HMI-9 medium supplemented with 10% foetal calf serum (FCS) and 100 UI/mL of penicillin/streptomycin. […] The efficacy of compounds against T. brucei bloodstream forms was evaluated using a modified resazurin-based assay previously described. Mid-log bloodstream forms were added to an equal volume of serial dilutions of compounds in supplemented complete HMI-9 medium at a final cell density of 5 × 10^3/mL. Following incubation for 72 h at 37 °C 5% CO2, 20 μL of a 0.5 mM resazurin solution was added and plates were incubated for a further 4 h under the same conditions. Fluorescence was measured at 540 nm and 620 nm excitation and emission wavelength, respectively, using a Synergy 2 Multi-Mode Reader (Biotek, Winooski, VT, USA).

Compound | CC50 at 72 h [1] [µM] | inhibition of growth at 5 µM [2] [%] | inhibition of growth at 10 µM [3] [%] | % inhibition ± SD at 10 μΜ CYP1A2 (CYP1A2) | inhibition at 10 µM ([4]; 10 μM, read-out: Single Dose Assay 10μM Mean Inhibitory Activity (%) ± SD) [%] | IC50 ([4]; read-out: Dose Response Curves IC50 ± SD) [µM]
C[N+](C)(C)CCOP(=O)([O-])OCCCCCCCCCCCn1cc(CCCCCCCCC(=O)OCc2ccccc2)nn1 [Compound 30, 11-(4-(9-(benzyloxy)-9-oxononyl)-1H-1,2,3-triazol-1-yl)undecyl (2-(trimethyl ammonio)ethyl) phosphate inner salt] | > 100 | 0 | 69.7 | –2.91% | – | –
C[N+](C)(C)CCOP(=O)([O-])OCCCCCCCCCCCn1cc(CCCCCCCCN)nn1 [Compound 36, 11-(4-(8-aminooctyl)-1H-1,2,3-triazol-1-yl)undecyl (2-(trimethylammonio)ethyl) phosphate inner salt] | > 100 | 20.3 | 0 | 3.18% | 30 ± 7 | –
CC1CS(=O)(=O)CCN1/N=C/c1ccc([N+](=O)[O-])o1 (centres unmarked) [Nifurtimox, reference compound] | – | – | 81.2 | – | – | –
N=C(N)c1ccc(OCCCCCOc2ccc(C(=N)N)cc2)cc1 [Pentamidine, reference compound] | – | – | – | – | – | 0.00155 ± 0.00024
